Test results as given in ChEMBL document CHEMBL3885861, “Open TG-GATES”.

Organism: Rattus norvegicus
Experiment: Open TG-GATES - Regimen: Single
Assay type: toxicity, organism-based, Sprague-Dawley
Parameters: regimen Single, gender Male, age 6 weeks
Conditions: in vivo, po, 100 mg/kg, route gavage, dose level Middle; for APTT / Bas / Eos / Fbg / Hb / Ht / Lym / MCH / MCHC / MCV / Mono / Neu / PT / Plat / RBC / Ret / WBC: tissue Blood; for KIDNEY_L / KIDNEY_R / KIDNEY_TOTAL: tissue Kidney; for LIVER: tissue Liver; for A/G / ALP / ALT / AST / BUN / CRE / Ca / Cl / DBIL / GLC / IP / K / LDH / Na / PL / RALB / TBIL / TC / TG / TP / gamma-GTP: tissue Plasma

Brc1ccccc1 [BROMOBENZENE]
TERMINAL_BW (3 h): 191 g
APTT (3 h): 16 s
Bas (3 h): 0%
Eos (3 h): 0.6%
Fbg (3 h): 266.6 mg/dL
Hb (3 h): 13.4 g/dL
Ht (3 h): 40.5%
Lym (3 h): 79.2%
MCH (3 h): 21.4 pg
MCHC (3 h): 33%
MCV (3 h): 64.7 fL
Mono (3 h): 3.6%
Neu (3 h): 16%
PT (3 h): 12.3 s
Plat (3 h): 111.5 x10_4/uL
RBC (3 h): 625.8 x10_4/ul
Ret (3 h): 10%
WBC (3 h): 74.4 x10_2/uL
KIDNEY_L (3 h): 0.8 g
KIDNEY_R (3 h): 0.8 g
KIDNEY_TOTAL (3 h): 1.6 g
LIVER (3 h): 7.8 g
A/G (3 h): 0.9
ALP (3 h): 1591.2 IU/L
ALT (3 h): 51 IU/L
AST (3 h): 76.8 IU/L
BUN (3 h): 8.6 mg/dL
CRE (3 h): 0.2 mg/dL
Ca (3 h): 11 mg/dL
Cl (3 h): 105.8 meq/L
DBIL (3 h): 0.004 mg/dL
GLC (3 h): 183 mg/dL
IP (3 h): 11.1 mg/dL
K (3 h): 3.9 meq/L
LDH (3 h): 80.8 IU/L
Na (3 h): 142.8 meq/L
PL (3 h): 155.6 mg/dL
RALB (3 h): 2.7 g/dL
TBIL (3 h): 0.044 mg/dL
TC (3 h): 87.4 mg/dL
TG (3 h): 42.6 mg/dL
TP (3 h): 5.7 g/dL
gamma-GTP (3 h): 1.2 IU/L
TERMINAL_BW (6 h): 190.5 g
APTT (6 h): 15.9 s
Bas (6 h): 0%
Eos (6 h): 0.8%
Fbg (6 h): 269.2 mg/dL
Hb (6 h): 13.4 g/dL
Ht (6 h): 39.7%
Lym (6 h): 78.8%
MCH (6 h): 21.4 pg
MCHC (6 h): 33.8%
MCV (6 h): 63.3 fL
Mono (6 h): 2.4%
Neu (6 h): 17.6%
PT (6 h): 12.4 s
Plat (6 h): 107.8 x10_4/uL
RBC (6 h): 627 x10_4/ul
Ret (6 h): 8.6%
WBC (6 h): 68.9 x10_2/uL
KIDNEY_L (6 h): 0.8 g
KIDNEY_R (6 h): 0.8 g
KIDNEY_TOTAL (6 h): 1.6 g
LIVER (6 h): 6.8 g
A/G (6 h): 0.9
ALP (6 h): 1550 IU/L
ALT (6 h): 41.8 IU/L
AST (6 h): 75.4 IU/L
BUN (6 h): 9.4 mg/dL
CRE (6 h): 0.1 mg/dL
Ca (6 h): 10.8 mg/dL
Cl (6 h): 105.4 meq/L
DBIL (6 h): 0.014 mg/dL
GLC (6 h): 179.8 mg/dL
IP (6 h): 11 mg/dL
K (6 h): 3.8 meq/L
LDH (6 h): 64.4 IU/L
Na (6 h): 141.2 meq/L
PL (6 h): 137.8 mg/dL
RALB (6 h): 2.6 g/dL
TBIL (6 h): 0.054 mg/dL
TC (6 h): 78.4 mg/dL
TG (6 h): 41.4 mg/dL
TP (6 h): 5.6 g/dL
gamma-GTP (6 h): 1.6 IU/L
TERMINAL_BW (9 h): 190 g
APTT (9 h): 15.5 s
Bas (9 h): 0%
Eos (9 h): 0.6%
Fbg (9 h): 266.4 mg/dL
Hb (9 h): 13.5 g/dL
Ht (9 h): 40.2%
Lym (9 h): 76.8%
MCH (9 h): 21.5 pg
MCHC (9 h): 33.6%
MCV (9 h): 63.9 fL
Mono (9 h): 2.2%
Neu (9 h): 19.4%
PT (9 h): 12.3 s
Plat (9 h): 115.9 x10_4/uL
RBC (9 h): 629 x10_4/ul
Ret (9 h): 9.1%
WBC (9 h): 79.5 x10_2/uL
KIDNEY_L (9 h): 0.8 g
KIDNEY_R (9 h): 0.8 g
KIDNEY_TOTAL (9 h): 1.5 g
LIVER (9 h): 6.8 g
A/G (9 h): 0.9
ALP (9 h): 1400.4 IU/L
ALT (9 h): 39.4 IU/L
AST (9 h): 70.8 IU/L
BUN (9 h): 13 mg/dL
CRE (9 h): 0.2 mg/dL
Ca (9 h): 10.8 mg/dL
Cl (9 h): 107 meq/L
DBIL (9 h): 0.02 mg/dL
GLC (9 h): 179.2 mg/dL
IP (9 h): 10.8 mg/dL
K (9 h): 4 meq/L
LDH (9 h): 78.2 IU/L
Na (9 h): 141.8 meq/L
PL (9 h): 147.8 mg/dL
RALB (9 h): 2.6 g/dL
TBIL (9 h): 0.064 mg/dL
TC (9 h): 88 mg/dL
TG (9 h): 29.4 mg/dL
TP (9 h): 5.5 g/dL
gamma-GTP (9 h): 1.4 IU/L
TERMINAL_BW (24 h): 193.2 g
APTT (24 h): 15.4 s
Bas (24 h): 0%
Eos (24 h): 0.8%
Fbg (24 h): 224.4 mg/dL
Hb (24 h): 12.9 g/dL
Ht (24 h): 38%
Lym (24 h): 79.6%
MCH (24 h): 21.5 pg
MCHC (24 h): 33.9%
MCV (24 h): 63.3 fL
Mono (24 h): 2.8%
Neu (24 h): 16.4%
PT (24 h): 12.9 s
Plat (24 h): 112.9 x10_4/uL
RBC (24 h): 600.8 x10_4/ul
Ret (24 h): 8.5%
WBC (24 h): 84.8 x10_2/uL
KIDNEY_L (24 h): 0.9 g
KIDNEY_R (24 h): 0.9 g
KIDNEY_TOTAL (24 h): 1.7 g
LIVER (24 h): 8.9 g
A/G (24 h): 0.9
ALP (24 h): 1694.4 IU/L
ALT (24 h): 52.2 IU/L
AST (24 h): 79 IU/L
BUN (24 h): 12 mg/dL
CRE (24 h): 0.2 mg/dL
Ca (24 h): 10.4 mg/dL
Cl (24 h): 106 meq/L
DBIL (24 h): 0.018 mg/dL
GLC (24 h): 186 mg/dL
IP (24 h): 8.1 mg/dL
K (24 h): 4 meq/L
LDH (24 h): 103.2 IU/L
Na (24 h): 142.6 meq/L
PL (24 h): 146.8 mg/dL
RALB (24 h): 2.5 g/dL
TBIL (24 h): 0.062 mg/dL
TC (24 h): 76.8 mg/dL
TG (24 h): 100 mg/dL
TP (24 h): 5.4 g/dL
gamma-GTP (24 h): 1.4 IU/L
